Experimental data published in PubChem BioAssay (NCI).
Several values for one entry are separate records, joined by “and”; a condition that tells them apart may be missing. Equal entries are not always repeated.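 Results reflect a 48-hour exposure of cells in 96-well plates to compound at five concentrations. Here, GI50 denotes the concentration required for 50% inhibition of growth. The concentration for full growth arrest is given as TGI.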

Legend:
Test in all cases: NCI tumour cell line growth inhibition, 48 h
[1] = test system: NCI-H23 lung
[2] = test system: HCT-116 colon
[3] = test system: UACC-62 melanoma
[4] = test system: DU-145 prostate
[5] = test system: NCI-H522 lung
[6] = test system: U251 CNS
[7] = test system: HCC-2998 colon
[8] = test system: LOX IMVI melanoma
[9] = test system: HOP-62 NSCLC
[10] = test system: TK-10 renal

Row | SMILES | TGI [1] | TGI [2] | TGI [3] | GI50 [4] | TGI [4] | TGI [5] | TGI [6] | TGI [7] | GI50 [8] | TGI [8] | TGI [9] | TGI [10] | GI50 [1] | GI50 [2] | GI50 [3] | GI50 [5] | GI50 [6] | GI50 [7] | GI50 [9] | GI50 [10]
1 | CC1=C(CO)C(=O)O[C@@H]([C@@H](C)[C@H]2CC[C@H]3[C@@H]4C[C@H]5O[C@]56[C@@H](O)C=CC(=O)[C@]6(C)[C@H]4CC[C@]23C)C1 | 0.81 µM | 0.538 µM | 2.7 µM | 0.294 µM | 0.91 µM | 0.114 µM | 1.52 µM | 1.56 µM | 0.172 µM | 0.547 µM | 2.48 µM | 1.99 µM | – | – | – | – | – | – | – | –
2 | Cc1nn(C)c2ncnc(N/N=C/c3cccc(O)c3O)c12 | > 68.2 µM | > 100 µM | 5.98 µM | 0.558 µM | > 100 µM | > 48.2 µM | > 100 µM | > 100 µM | 0.238 µM | 4.05 µM | 15.1 µM | > 100 µM | 0.774 µM | 0.568 µM | 1.69 µM | 0.41 µM | 0.513 µM | 0.853 µM | 1.08 µM | 2.64 µM
3 | CN(C)CCN1C(=O)c2cccc3c(/C=C/CN4C(=O)c5cccc6cccc(c56)C4=O)ccc(c23)C1=O | > 100 µM | > 100 µM | 33.1 µM | > 100 µM | > 100 µM | > 100 µM | > 100 µM | > 100 µM | 14.5 µM | 27.7 µM | > 100 µM | 82.8 µM | > 100 µM | 56.9 µM | 16.3 µM | > 100 µM | 46.5 µM | > 100 µM | 42 µM | 34.7 µM
4 | CC(C)=Cc1cc(CCC/C(C)=C/Cc2c(O)cc(C)c(C(=O)O)c2O)co1 | > 100 µM | > 100 µM | > 100 µM | – | > 100 µM | > 100 µM | > 100 µM | > 100 µM | – | > 100 µM | > 100 µM | > 100 µM | – | – | – | – | – | – | – | –
5 | CCN1CCN(c2cc(C(=O)Nc3cccc(Nc4ccc5c(OC)cccc5n4)c3)cc(C(F)(F)F)c2)CC1 | 8.12 µM | 3.54 µM | 5.77 µM | 1.88 µM | 7.33 µM | 4 µM | 4.94 µM | 2.01 µM | 0.781 µM | 1.96 µM | 4.04 µM | 8.02 µM | 3.41 µM | 0.872 µM | 1.5 µM | 1.01 µM | 1.36 µM | 0.72 µM | 1.02 µM | 3.47 µM
6 | CC(C)C[C@H](NC(=O)Cn1cccc(CNC(=O)c2ccccc2)c1=O)B(O)O | > 100 µM | 2.65 µM | 3.54 µM | 0.734 µM | 45.1 µM | 2.3 µM | 19.2 µM | 2.57 µM | 0.244 µM | 0.811 µM | 6.38 µM | 4.75 µM | 1.05 µM | 0.337 µM | 0.486 µM | 0.377 µM | 0.517 µM | 0.893 µM | 1.21 µM | 0.55 µM
7 | COc1ccc(CSC2=C(C#N)C(=O)NC3(CCCCC3)S2)cc1 | > 100 µM | > 100 µM | > 100 µM | – | > 100 µM | 97.2 µM | > 100 µM | 62.4 µM | – | > 64.8 µM | > 100 µM | > 100 µM | – | – | – | – | – | – | – | –
8 | C=CC1C(CC2OC(CO)C(O)C(O)C2O)OC=C2C(=O)OCCC21O (configuration not stated) | 61.9 µM | 32.1 µM | 53.3 µM | 13.8 µM | 62.6 µM | 34.5 µM | 28 µM | 34.4 µM | 8.37 µM | 23.4 µM | 35.5 µM | 90.3 µM | 24.9 µM | 16.2 µM | 21.2 µM | 4.72 µM | 13.2 µM | 15.3 µM | 13.4 µM | 26 µM
9 | OCCCCC#Cc1ccccc1C#Cc1cccnc1 | > 100 µM | > 100 µM | > 100 µM | 47.3 µM | > 100 µM | > 100 µM | 78.6 µM | 70.7 µM | 29.6 µM | > 100 µM | 57.4 µM | 80.6 µM | 28 µM | 45.9 µM | 35.2 µM | 41.9 µM | 20.3 µM | 24.8 µM | 20 µM | 26.9 µM
10 | CC(C)C1(NC(=O)C2CC3c4cccc5[nH]cc(c45)CC3N(C)C2)OC2(O)C3CCCN3C(=O)C(Cc3ccccc3)N2C1=O (configuration not stated) | > 100 µM | > 100 µM | > 100 µM | – | > 100 µM | > 100 µM | > 100 µM | > 100 µM | – | 47.7 µM | > 100 µM | > 100 µM | – | – | – | – | – | – | – | –
11 | CN1CCN(C(=O)c2ccc(NC(=O)Nc3ccc(-c4nc(N5CCOCC5)c5cccn5n4)cc3)cc2)CC1 | 19 µM | 15.2 µM | 0.189 µM | 0.0348 µM | 12 µM | 16.9 µM | 10.3 µM | 11.8 µM | 0.0206 µM | 1.74 µM | 0.232 µM | 0.874 µM | 0.0711 µM | 0.0507 µM | 0.034 µM | 0.0357 µM | 0.0464 µM | 0.0352 µM | 0.025 µM | 0.18 µM
12 | O=C1NC(=O)C(c2cccc(Cl)c2)=C1Nc1ccc(Cl)c(C(=O)O)c1 | > 25 µM | > 25 µM | > 25 µM | > 25 µM | > 25 µM | > 25 µM | > 25 µM | > 25 µM | > 25 µM | > 25 µM | > 25 µM | > 25 µM | > 25 µM | > 25 µM | > 25 µM | > 25 µM | > 25 µM | > 25 µM | > 25 µM | > 25 µM
13 | COC(=O)CC1(O)C=CC(=O)C=C1 | 10.9 µM | 26.7 µM | 5 µM | – | 18.6 µM | 4.04 µM | 18.5 µM | 29.4 µM | – | 6.76 µM | 18.1 µM | 16 µM | – | – | – | – | – | – | – | –
14 | O=c1[nH]c2ccccc2c(O)c1/C=N/C(=S)NC1CCCCC1 | > 100 µM | > 100 µM | > 100 µM | – | > 100 µM | > 100 µM | > 100 µM | > 100 µM | – | > 100 µM | > 100 µM | > 100 µM | – | – | – | – | – | – | – | –
15 | Nc1c(C(=O)c2cccc(C(O)CO)c2)cnn1-c1ccc(F)cc1 (configuration not stated) | > 25 µM | > 25 µM | > 25 µM | > 25 µM | > 25 µM | > 25 µM | > 25 µM | > 25 µM | > 25 µM | > 25 µM | > 25 µM | > 25 µM | > 25 µM | > 25 µM | > 25 µM | > 25 µM | > 25 µM | > 25 µM | > 25 µM | > 25 µM
16 | COc1ccc2c(c1O)[C@@]13CCCC=C1[C@@H](C2)[N+](C)(C)CC3 | > 100 µM | > 100 µM | > 100 µM | – | > 100 µM | > 100 µM | > 100 µM | > 100 µM | – | > 100 µM | > 100 µM | > 100 µM | – | – | – | – | – | – | – | –
17 | COc1cc(/C=C/C(=O)CC(=O)/C=C/c2cc(OC)c(O)c(OC)c2)cc(OC)c1O | 25 µM and 35.7 µM | 13.3 µM and > 100 µM | – | 20.7 µM | 24.8 µM and > 100 µM | 15 µM and 14 µM | 25 µM and 36.1 µM | 11.6 µM | 15.8 µM | 25 µM and 66.3 µM | 25 µM and > 100 µM | 25 µM and > 100 µM | 12.7 µM | 17.2 µM | 5.51 µM | 3.75 µM | – | – | 19.6 µM | 34.2 µM
18 | COc1cc(C)cc(C(=O)/C=C/c2ccccc2)c1O | 32.4 µM | 34.9 µM | 33.6 µM | – | 29.4 µM | 50.8 µM | 35.6 µM | 38 µM | – | 34.8 µM | 40.3 µM | 35.8 µM | – | – | – | – | – | – | – | –
19 | Nc1nc(Cl)nc2c1ncn2C1OC(CO)C(O)C1F (configuration not stated) | 0.626 µM | > 100 µM | 1.7 µM | 0.278 µM | – | > 100 µM | > 100 µM | – | 2.18 µM | > 100 µM | 22.4 µM | > 83 µM | 0.02 µM | 0.0322 µM | 0.145 µM | > 68.2 µM | 0.213 µM | < 0.0304 µM | 0.109 µM | 0.55 µM
